Laboratory results: paper PMC5218480 (PLoS ONE, 2017)

System: MV-4-11 cells
Assay: Gene expression microarray analysis (Affymetrix PrimeView) and GSEA
Assay type: cell-based, human
Design: RFU PODN (11730768_x_at) / Fold change /veh PODN (11730768_x_at) / RFU LINC00158 (11744669_a_at) / Fold change /veh LINC00158 (11744669_a_at) / RFU DUSP10 (11751237_a_at) / Fold change /veh DUSP10 (11751237_a_at) / RFU ID3 (11757404_x_at) / Fold change /veh ID3 (11757404_x_at) / RFU PLEKHG5 (11737974_s_at) / Fold change /veh PLEKHG5 (11737974_s_at) / RFU LRRC4B (11730491_at) / Fold change /veh LRRC4B (11730491_at) / RFU GIMAP4 (11747438_a_at) / Fold change /veh GIMAP4 (11747438_a_at) / RFU KRT8 (11758183_x_at) / Fold change /veh KRT8 (11758183_x_at) / RFU CNN1 (11734310_a_at) / Fold change /veh CNN1 (11734310_a_at) / RFU VPS37D (11726825_at) / Fold change /veh VPS37D (11726825_at) / RFU C10orf10 (11716522_x_at) / Fold change /veh C10orf10 (11716522_x_at) / RFU KIR2DL2 /// KIR2DL4 /// KIR2DL5A /// KIR2DL5B /// KIR2DS1 /// KIR2DS2 /// KIR2DS3 /// KIR2DS4 /// KIR3DL3 /// KIR3DL3 /// KIR3DS1 (11738374_at) / Fold change /veh KIR2DL2 /// KIR2DL4 /// KIR2DL5A /// KIR2DL5B /// KIR2DS1 /// KIR2DS2 /// KIR2DS3 /// KIR2DS4 /// KIR3DL3 /// KIR3DL3 /// KIR3DS1 (11738374_at) / RFU C1QL1 (11718748_at) / Fold change /veh C1QL1 (11718748_at) / RFU TMPRSS4 (11747572_a_at) / Fold change /veh TMPRSS4 (11747572_a_at) / RFU HAMP (11756126_x_at) / Fold change /veh HAMP (11756126_x_at) / RFU RNFT2 (11725882_a_at) / Fold change /veh RNFT2 (11725882_a_at) / RFU NR4A2 (11747474_a_at) / Fold change /veh NR4A2 (11747474_a_at) / RFU ABCC12 (11746883_a_at) / Fold change /veh ABCC12 (11746883_a_at) / RFU TMEM136 (11760407_x_at) / Fold change /veh TMEM136 (11760407_x_at) / RFU CLDN22 /// WWC2 (11732394_at) / Fold change /veh CLDN22 /// WWC2 (11732394_at) / RFU HLA-DPB1 (11760878_x_at) / Fold change /veh HLA-DPB1 (11760878_x_at) / RFU SPINT1 (11716480_a_at) / Fold change /veh SPINT1 (11716480_a_at) / RFU GAP43 (11754022_s_at) / Fold change /veh GAP43 (11754022_s_at) / RFU A4GNT (11735810_at) / Fold change /veh A4GNT (11735810_at) / RFU PRB3 (11715151_x_at) / Fold change /veh PRB3 (11715151_x_at) / RFU TUBB4B (11761932_at) / Fold change /veh TUBB4B (11761932_at) / RFU CAPN14 (11732068_a_at) / Fold change /veh CAPN14 (11732068_a_at) / RFU TMCC2 (11721928_a_at) / Fold change /veh TMCC2 (11721928_a_at) / RFU IRGQ (11745062_a_at) / Fold change /veh IRGQ (11745062_a_at) / RFU FAM174B (11720279_a_at) / Fold change /veh FAM174B (11720279_a_at) / RFU TMPRSS4 (11748680_a_at) / Fold change /veh TMPRSS4 (11748680_a_at) / RFU FAM212B (11763350_a_at) / Fold change /veh FAM212B (11763350_a_at) / RFU PLEKHG5 (11743358_a_at) / Fold change /veh PLEKHG5 (11743358_a_at) / RFU ZSCAN30 (11745921_a_at) / Fold change /veh ZSCAN30 (11745921_a_at) / RFU CMKLR1 (11741424_a_at) / Fold change /veh CMKLR1 (11741424_a_at) / RFU LOC101060620 /// MAPK8IP1 (11723275_at) / Fold change /veh LOC101060620 /// MAPK8IP1 (11723275_at) / RFU SPTSSB (11747773_x_at) / Fold change /veh SPTSSB (11747773_x_at) / RFU PRSS12 (11739890_at) / Fold change /veh PRSS12 (11739890_at) / RFU BIN1 (11741810_x_at) / Fold change /veh BIN1 (11741810_x_at) / RFU WNT11 (11732464_a_at) / Fold change /veh WNT11 (11732464_a_at) / RFU C10orf10 (11716521_a_at) / Fold change /veh C10orf10 (11716521_a_at) / RFU C5orf56 (11738089_at) / Fold change /veh C5orf56 (11738089_at) / RFU CYB561 (11721691_x_at) / Fold change /veh CYB561 (11721691_x_at) / RFU ANKRD19P (11752326_a_at) / Fold change /veh ANKRD19P (11752326_a_at) / RFU OR2T12 /// OR2T33 /// OR2T8 (11738714_s_at) / Fold change /veh OR2T12 /// OR2T33 /// OR2T8 (11738714_s_at) / RFU VCAN (11748164_a_at) / Fold change /veh VCAN (11748164_a_at) / RFU JSRP1 (11732532_at) / Fold change /veh JSRP1 (11732532_at) / RFU KRTAP10-11 (11738290_x_at) / Fold change /veh KRTAP10-11 (11738290_x_at) / RFU MYO3A (11730013_a_at) / Fold change /veh MYO3A (11730013_a_at) / RFU EBF3 (11725865_a_at) / Fold change /veh EBF3 (11725865_a_at) / RFU CAMK2N1 (11719241_x_at) / Fold change /veh CAMK2N1 (11719241_x_at) / RFU C5orf56 (11738088_a_at) / Fold change /veh C5orf56 (11738088_a_at) / RFU OLFML3 (11715873_a_at) / Fold change /veh OLFML3 (11715873_a_at) / RFU LOC100653217 /// NTM (11731650_a_at) / Fold change /veh LOC100653217 /// NTM (11731650_a_at) / RFU MAPK11 (11762145_a_at) / Fold change /veh MAPK11 (11762145_a_at) / RFU FIZ1 (11724087_x_at) / Fold change /veh FIZ1 (11724087_x_at) / RFU OASL (11726364_x_at) / Fold change /veh OASL (11726364_x_at) / RFU SOX15 (11748057_x_at) / Fold change /veh SOX15 (11748057_x_at) / RFU CD79A (11719716_a_at) / Fold change /veh CD79A (11719716_a_at) / RFU HIST1H1D (11736915_at) / Fold change /veh HIST1H1D (11736915_at) / RFU CASKIN2 (11723855_a_at) / Fold change /veh CASKIN2 (11723855_a_at) / RFU LOC730098 (11760151_x_at) / Fold change /veh LOC730098 (11760151_x_at) / RFU OR4N2 (11742367_at) / Fold change /veh OR4N2 (11742367_at) / RFU PRRT2 (11749266_a_at) / Fold change /veh PRRT2 (11749266_a_at) / RFU SNX32 (11753110_a_at) / Fold change /veh SNX32 (11753110_a_at) / RFU CDHR5 (11726645_a_at) / Fold change /veh CDHR5 (11726645_a_at) / RFU RCAN1 (11760418_a_at) / Fold change /veh RCAN1 (11760418_a_at) / RFU FAM167A (11723789_a_at) / Fold change /veh FAM167A (11723789_a_at) / RFU FAM26E (11764081_at) / Fold change /veh FAM26E (11764081_at) / RFU ISYNA1 (11749810_s_at) / Fold change /veh ISYNA1 (11749810_s_at) / RFU ACY1 (11761880_at) / Fold change /veh ACY1 (11761880_at) / RFU 11764098_at / Fold change /veh 11764098_at / RFU SAMD14 (11745864_x_at) / Fold change /veh SAMD14 (11745864_x_at) / RFU NPB (11741838_a_at) / Fold change /veh NPB (11741838_a_at) / RFU TMPRSS6 (11731388_a_at) / Fold change /veh TMPRSS6 (11731388_a_at) / RFU KRTAP10-2 (11738614_at) / Fold change /veh KRTAP10-2 (11738614_at) / RFU ARHGAP8 /// PRR5-ARHGAP8 (11727945_x_at) / Fold change /veh ARHGAP8 /// PRR5-ARHGAP8 (11727945_x_at) / RFU KRTAP5-7 /// NADSYN1 (11734609_at) / Fold change /veh KRTAP5-7 /// NADSYN1 (11734609_at) / RFU RASL12 (11751679_a_at) / Fold change /veh RASL12 (11751679_a_at) / RFU CDKN2B (11736163_a_at) / Fold change /veh CDKN2B (11736163_a_at) / RFU PRF1 (11729649_at) / Fold change /veh PRF1 (11729649_at) / RFU, ZNF638 /// ZNF638-IT1 / Fold change vs veh, ZNF638 /// ZNF638-IT1 / RFU, PANK3 / Fold change vs veh, PANK3 / RFU, SH3YL1 / Fold change vs veh, SH3YL1 / RFU, ZEB2 / Fold change vs veh, ZEB2 / RFU, NRIP1 / Fold change vs veh, NRIP1 / RFU, PTTG1IP / Fold change vs veh, PTTG1IP / RFU, CAPN2 / Fold change vs veh, CAPN2 / RFU, MED14 / Fold change vs veh, MED14 / RFU, SNORA58 / Fold change vs veh, SNORA58 / RFU, C1orf63 / Fold change vs veh, C1orf63 / RFU, LRRFIP1 / Fold change vs veh, LRRFIP1 / RFU, NDUFAF7 / Fold change vs veh, NDUFAF7 / RFU, SLC12A2 / Fold change vs veh, SLC12A2 / RFU, IBTK / Fold change vs veh, IBTK / RFU, ESF1 / Fold change vs veh, ESF1 / Fold change vs veh, TMEM50B / RFU, TAOK1 / Fold change vs veh, TAOK1 / RFU, ACBD3 / Fold change vs veh, ACBD3 / RFU, TMA16 / Fold change vs veh, TMA16 / RFU, RWDD3 / Fold change vs veh, RWDD3 / RFU, BCAT1 / Fold change vs veh, BCAT1 / RFU, EDEM3 / Fold change vs veh, EDEM3 / RFU, TMEM33 / Fold change vs veh, TMEM33 / RFU, WDR75 / Fold change vs veh, WDR75 / RFU, AHCTF1 / Fold change vs veh, AHCTF1 / RFU, TFRC / Fold change vs veh, TFRC / RFU, ZDHHC17 / Fold change vs veh, ZDHHC17 / RFU, NOM1 / Fold change vs veh, NOM1 / RFU, ARL8B / Fold change vs veh, ARL8B / RFU, ZBTB11 / Fold change vs veh, ZBTB11 / RFU, TAMM41 / Fold change vs veh, TAMM41 / RFU, KIAA1704 /// LOC100996395 / Fold change vs veh, KIAA1704 /// LOC100996395 / RFU, ING1 / Fold change vs veh, ING1 / RFU, TRMT61B / Fold change vs veh, TRMT61B / RFU, FUBP3 / Fold change vs veh, FUBP3 / RFU, TP53 / Fold change vs veh, TP53 / RFU, TNKS2 / Fold change vs veh, TNKS2 / RFU, ZFP14 / Fold change vs veh, ZFP14 / RFU, ACTR2 / Fold change vs veh, ACTR2 / RFU, PPP3R1 / Fold change vs veh, PPP3R1 / RFU, PIK3R1 / Fold change vs veh, PIK3R1 / RFU, HNRNPA1 / Fold change vs veh, HNRNPA1 / RFU, RNF170 / Fold change vs veh, RNF170 / RFU, ZNF28 / Fold change vs veh, ZNF28 / RFU, RNGTT / Fold change vs veh, RNGTT / RFU, OGT / Fold change vs veh, OGT / RFU, BRD1 / Fold change vs veh, BRD1 / RFU, MARS / Fold change vs veh, MARS / RFU, ZNF655 / Fold change vs veh, ZNF655 / RFU, FAHD1 / Fold change vs veh, FAHD1 / RFU, BDP1 / Fold change vs veh, BDP1 / RFU, LRRCC1 / Fold change vs veh, LRRCC1 / RFU, ARID1A / Fold change vs veh, ARID1A / RFU, ZNF146 / Fold change vs veh, ZNF146 / RFU, ZNF330 / Fold change vs veh, ZNF330 / RFU, GPN3 / Fold change vs veh, GPN3 / RFU, C9orf123 / Fold change vs veh, C9orf123 / RFU, N4BP2L2 / Fold change vs veh, N4BP2L2 / RFU, ARFIP1 / Fold change vs veh, ARFIP1 / RFU, FAM179B / Fold change vs veh, FAM179B / RFU, BCL10 / Fold change vs veh, BCL10 / RFU, UHRF1BP1L / Fold change vs veh, UHRF1BP1L / RFU, BET1 / Fold change vs veh, BET1 / RFU, CNOT2 / Fold change vs veh, CNOT2 / RFU, ZNF268 / Fold change vs veh, ZNF268 / Fold change vs veh, ZNF507 / RFU, DGCR2 / Fold change vs veh, DGCR2 / RFU, WDSUB1 / Fold change vs veh, WDSUB1 / Fold change vs veh, HSP90B1 /// MIR3652 / RFU, ADSS / Fold change vs veh, ADSS / RFU, GK / Fold change vs veh, GK / RFU, ZNF148 / Fold change vs veh, ZNF148 / RFU, TAF9 / Fold change vs veh, TAF9 / RFU, SLC1A5 / Fold change vs veh, SLC1A5 / RFU, SLMO2 / Fold change vs veh, SLMO2 / RFU, ABCC4 / Fold change vs veh, ABCC4 / RFU, LOC101060439 /// RAP1B / Fold change vs veh, LOC101060439 /// RAP1B / RFU, RFX7 / Fold change vs veh, RFX7 / RFU, GTPBP10 / Fold change vs veh, GTPBP10 / RFU, CNEP1R1 / Fold change vs veh, CNEP1R1 / RFU, BIVM-ERCC5 /// ERCC5 / Fold change vs veh, BIVM-ERCC5 /// ERCC5 / RFU, ILF3 / Fold change vs veh, ILF3 / RFU 11762660_at / Fold change /veh 11762660_at / RFU VCAN (11757783_s_at) / Fold change /veh VCAN (11757783_s_at) / RFU DDX43 (11728927_at) / Fold change /veh DDX43 (11728927_at) / RFU KRT8 (11758188_x_at) / Fold change /veh KRT8 (11758188_x_at) / RFU NKD1 (11759106_at) / Fold change /veh NKD1 (11759106_at) / RFU SRD5A1 (11742802_a_at) / Fold change /veh SRD5A1 (11742802_a_at) / RFU TPSAB1 /// TPSB2 (11721975_s_at) / Fold change /veh TPSAB1 /// TPSB2 (11721975_s_at) / RFU GSTM3 (11746129_a_at) / Fold change /veh GSTM3 (11746129_a_at) / RFU IL23R (11737362_x_at) / Fold change /veh IL23R (11737362_x_at) / RFU TMEM51 (11727254_a_at) / Fold change /veh TMEM51 (11727254_a_at) / RFU PIWIL2 (11732686_x_at) / Fold change /veh PIWIL2 (11732686_x_at) / RFU ORM1 (11744905_x_at) / Fold change /veh ORM1 (11744905_x_at) / RFU CCDC152 (11743942_at) / Fold change /veh CCDC152 (11743942_at) / RFU ECM1 (11717891_a_at) / Fold change /veh ECM1 (11717891_a_at) / RFU IL23R (11748794_a_at) / Fold change /veh IL23R (11748794_a_at) / RFU TNFAIP8L3 (11732012_x_at) / Fold change /veh TNFAIP8L3 (11732012_x_at) / RFU MBOAT4 (11741988_at) / Fold change /veh MBOAT4 (11741988_at) / RFU 11764193_at / Fold change /veh 11764193_at / RFU TMEM53 (11763286_at) / Fold change /veh TMEM53 (11763286_at) / RFU MAGEB2 (11727129_at) / Fold change /veh MAGEB2 (11727129_at) / RFU TMEM200A (11744735_a_at) / Fold change /veh TMEM200A (11744735_a_at) / RFU CCDC152 (11751479_a_at) / Fold change /veh CCDC152 (11751479_a_at) / RFU FAM211A (11726209_a_at) / Fold change /veh FAM211A (11726209_a_at) / RFU RGS16 (11746705_a_at) / Fold change /veh RGS16 (11746705_a_at) / RFU VCAN (11755009_s_at) / Fold change /veh VCAN (11755009_s_at) / RFU RHOB (11743442_s_at) / Fold change /veh RHOB (11743442_s_at) / RFU RGS16 (11720943_a_at) / Fold change /veh RGS16 (11720943_a_at) / RFU RGS16 (11720944_at) / Fold change /veh RGS16 (11720944_at) / RFU, VPS4B / Fold change vs veh, VPS4B / RFU, CREB1 / Fold change vs veh, CREB1 / RFU, DNAJC13 / Fold change vs veh, DNAJC13 / RFU, GNAQ / Fold change vs veh, GNAQ / RFU, CDK5R1 / Fold change vs veh, CDK5R1 / RFU, ZRANB3 / Fold change vs veh, ZRANB3 / RFU, CUL4A / Fold change vs veh, CUL4A / RFU, CCNY / Fold change vs veh, CCNY / RFU, UFL1 / Fold change vs veh, UFL1 / RFU, COG3 / Fold change vs veh, COG3 / RFU, DIAPH2 / Fold change vs veh, DIAPH2 / RFU, SKA2 / Fold change vs veh, SKA2 / RFU, AFF3 / Fold change vs veh, AFF3 / RFU, LMF1 / Fold change vs veh, LMF1 / RFU, IPO11 / Fold change vs veh, IPO11 / RFU, DFFB / Fold change vs veh, DFFB / RFU, FOXP1 / Fold change vs veh, FOXP1 / RFU, CARD8 / Fold change vs veh, CARD8 / RFU, STRN3 / Fold change vs veh, STRN3 / RFU, ADK / Fold change vs veh, ADK / RFU, RASSF2 / Fold change vs veh, RASSF2 / RFU, WIPF1 / Fold change vs veh, WIPF1 / RFU, LARP1B / Fold change vs veh, LARP1B / RFU, RASA1 / Fold change vs veh, RASA1 / RFU, RB1 / Fold change vs veh, RB1 / RFU, PPFIA1 / Fold change vs veh, PPFIA1 / RFU, MAT2A / Fold change vs veh, MAT2A / RFU, CCT5 / Fold change vs veh, CCT5 / RFU, WDR92 / Fold change vs veh, WDR92 / RFU, CUX1 / Fold change vs veh, CUX1 / RFU, TTC7A / Fold change vs veh, TTC7A / RFU, TMEM135 / Fold change vs veh, TMEM135 / RFU, DEPTOR / Fold change vs veh, DEPTOR / RFU, CPM / Fold change vs veh, CPM / RFU, DNAJB6 / Fold change vs veh, DNAJB6 / RFU, CACNA2D3 / Fold change vs veh, CACNA2D3 / RFU, DTX4 / Fold change vs veh, DTX4 / RFU, TFCP2 / Fold change vs veh, TFCP2 / RFU, GMCL1 /// GMCL1P1 / Fold change vs veh, GMCL1 /// GMCL1P1 / RFU, AEBP2 / Fold change vs veh, AEBP2 / RFU, SNHG1 /// SNORD22 /// SNORD25 /// SNORD26 /// SNORD27 /// SNORD28 /// SNORD29 /// SNORD31 / Fold change vs veh, SNHG1 /// SNORD22 /// SNORD25 /// SNORD26 /// SNORD27 /// SNORD28 /// SNORD29 /// SNORD31 / Fold change (Aza/veh), C12orf56 (ProbeSet 11735607_a_at) / Fold change (ACY-1035/veh), C12orf56 (ProbeSet 11735607_a_at) / Fold change (Aza/veh), FGFR1OP (ProbeSet 11751329_s_at) / Fold change (ACY-1035/veh), FGFR1OP (ProbeSet 11751329_s_at) / Fold change (Aza/veh), VPS36 (ProbeSet 11739960_a_at) / Fold change (ACY-1035/veh), VPS36 (ProbeSet 11739960_a_at) / RFU SYPL1 (11715823_x_at) / Fold change /veh SYPL1 (11715823_x_at) / RFU IGFBP7 (11715501_s_at) / Fold change /veh IGFBP7 (11715501_s_at) / RFU REEP3 (11722064_at) / Fold change /veh REEP3 (11722064_at) / RFU IGLL1 (11728026_x_at) / Fold change /veh IGLL1 (11728026_x_at): dose or concentration left out as unconfirmed
Conditions: ProbeSet 11732165_x_at; LIST D

Nc1ccc(-c2cccs2)cc1NC(=O)c1ccc2c(c1)cc(C1CC1)n2CCN1CCOCC1 [ACY-1035]
Fold change vs veh, LMF1: 0.85
